# Results: PubChem BioAssay (NCI)
# “And” between values parts separate entries of the source, which are not always exact repeats. Equal entries are not always repeated.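 These data come from cells grown in 96-well plates and exposed to compound for 48 hours at five concentrations. At the GI50, growth is halved. TGI marks complete inhibition of growth.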
# How the values were obtained:
# Assay in all cases: NCI-60 cell line screen, 48 h
# [1] = tested on: NCI-H226 lung
# [2] = tested on: U251 CNS
# [3] = tested on: SK-MEL-5 melanoma
# [4] = tested on: K-562 leukemia
# [5] = tested on: 786-0 renal
# [6] = tested on: HOP-92 NSCLC
# [7] = tested on: MDA-MB-231 breast
# [8] = tested on: NCI/ADR-RES ovarian
# [9] = tested on: NCI-H460 lung
# [10] = tested on: HOP-62 NSCLC
Structure (SMILES),TGI [1] [µM],TGI [2] [µM],TGI [3] [µM],TGI [4] [µM],TGI [5] [µM],TGI [6] [µM],TGI [7] [µM],TGI [8] [µM],TGI [9] [µM],TGI [10] [µM],GI50 [1],GI50 [2],GI50 [3],GI50 [4],GI50 [5],GI50 [6] [µM],GI50 [7],GI50 [8],GI50 [9],GI50 [10]
CC[C@@]1(OC(=O)CCC(=O)O)C(=O)OCc2c1cc1n(c2=O)Cc2cc3ccccc3nc2-1,3.13,2.18,0.373,> 61.8,0.394,6.08,> 27.6,0.791,0.592,0.181,,,,,,,,,,
CCc1ccc(C2=C(O)C(=O)C(c3ccc(CC)cc3)=C(O)C2=O)cc1,7.34,10.1,3.86,3.61,2.95,4.33,11,5.86,5,3.42,1.9 µM,2.26 µM,1.89 µM,1.34 µM,1.57 µM,1.24,2.53 µM,2.21 µM,2.06 µM,1.5 µM
O=c1c(OC/C(=N/O)c2ccccc2)c(-c2ccccc2)oc2ccccc12,> 50,27.3,15,> 50,> 50,> 50,23.6,42,27.5,> 50,21.3 µM,11 µM,7.88 µM,13.7 µM,19 µM,14.3,9.39 µM,14 µM,11.3 µM,20.3 µM
O=Nc1c2cccnc2n2nnc3ccc(Cl)cc3c12,21,13.2,14.5,6.66,6.11,1.75,7.76,7.84,7.8,11.4,4.96 µM,2.57 µM,5.73 µM,0.239 µM,1.25 µM,0.0999,1.41 µM,1.29 µM,2.11 µM,4.64 µM
COC(=O)c1ccc2c(c1)c1c(C)c3cnccc3c(C)c1n2C,0.341,1.48,0.253,1.8,1.34,0.584,0.884,0.636,0.674,0.995,0.0574 µM,0.0499 µM,0.0866 µM,0.0442 µM,0.0666 µM,0.0653,0.125 µM,0.0498 µM,0.178 µM,0.0538 µM
OCCCNCc1ccccn1,> 100,> 100,> 100,> 100,> 100,> 100,> 100,> 100,> 100,> 100,,,,,,,,,,
ClCCn1cnc2c(SCc3ccccc3)ncnc21,> 100,> 100,> 100,> 100,19.7,> 100,> 100,> 100,30.1,> 100,31 µM,0.623 µM,0.79 µM,0.64 µM,1.05 µM,16.3,30 µM,4.94 µM,0.356 µM,1.44 µM
CC1=CC[C@@H]2C(C)(C)[C@@H](O)CC[C@@]2(C)[C@@H]1COc1ccc2ccc(=O)oc2c1,19.8,27.9,12.7,27.5,28,18.2,43.3,12.7,25.7,26.1,4.28 µM,8.82 µM,3.48 µM,3.28 µM,13 µM,3.83,13.9 µM,3.22 µM,7.68 µM,6.84 µM
N#CC1C(N)=NNC1c1ccc(-c2ccc(-c3nc4ccccc4o3)cc2)o1 (stereo not drawn),74.5,> 100,60.5,> 100,> 100,> 100,65.8,75.6,> 100,> 100,15.1 µM,28.4 µM,21.4 µM,64.6 µM,> 100 µM,18.2,15.3 µM,36 µM,23.8 µM,> 100 µM
Cc1ccc(S(=O)(=O)NCCN2c3nc4ccccc4cc3Sc3cc4ccccc4nc32)cc1,> 100,> 89.9,> 100,> 100,> 45.9,13.3,> 100,> 100,> 100,98.9,64.2 µM,4.93 µM,5.59 µM,> 100 µM,1.67 µM,2.19,4.61 µM,> 25.1 µM,> 100 µM,16.5 µM
CCN(CC)CC(C)Nc1ccc(C)c2sc3ccccc3c(=O)c12 (stereo not drawn),18.8,16.3,2.85,3.15,11.2,8.36,8.99,18.7,8.25,8.67,4.21 µM,3.43 µM,1.48 µM,0.216 µM,3.14 µM,0.896,2.42 µM,5.56 µM,2.05 µM,2.63 µM
O=S(=O)(O)c1ccc2cc(N=Nc3cc(S(=O)(=O)O)c4cccnc4c3O)ccc2c1,> 100,> 100,> 100,> 100,> 100,> 100,> 100,> 100,> 100,> 100,,,,,,,,,,
c1cc(-c2sc(-c3ccncc3)c(-c3ccncc3)c2-c2ccncc2)ccn1,30.4,27.8,28.6,> 100,33,29.6,31.2,82,23.8,78.1,,,,,,,,,,
Cn1cnc([N+](=O)[O-])c1Sc1ncnc2nc[nH]c12,> 100,> 100,> 100,> 100,> 100,> 100,> 100,> 100,> 100,> 100,7.17 µM and > 27.2 µM,13.9 µM and 27.7 µM,12.1 µM and 14.4 µM,2.49 µM and 1.3 µM,3.25 µM and 3.77 µM,,8.83 µM and 11.7 µM,3.27 µM and 5.39 µM,6.58 µM and 16.5 µM,0.882 µM and 5.79 µM
CCOC(=O)/C(C1=CC(=O)C(=O)c2ccccc21)=C(/C)NCc1ccccc1,6.38,,3.38,3.24,2.88,3.52,3.28,5.08,12,3.44,2.62 µM,0.606 µM,1.78 µM,1.3 µM,1.29 µM,1.4,1.37 µM,2.02 µM,3.23 µM,1.56 µM
